These results are taken from patent US6608082B1, “Treatment of erectile dysfunction using isoquinoline compound melanocortin receptor ligands” (Lion Bioscience AG, priority 1998, dated 2003).

The structures appear in SMILES notation.

A word on the IC50: it is the concentration that inhibits the measured activity by half.

The test system of one assay is IL-10. As to the kind of experiment: Increasing levels of IL-10 in mice (plasma ELISA). In kind it is in vivo. The following applies: IP, mouse plasma, 90 or 105 minutes. Here is the method: Isoquinoline compounds were administered intraperitoneally to mice in doses of 30, 100 or 300 μg/mouse or orally in doses of 300 or 600 μg/mouse. Levels of IL-10 were measured 90 or 105 minutes after administration as indicated. Samples were collected and diluted, when appropriate, as described in Example VI. A 100 μl sample of plasma was assayed by ELISA for IL-10. Briefly, ELISA plates were coated with rat anti-mouse IL-10 monoclonal antibody (Pharmingen; San Diego Calif.). Samples or known concentrations of IL-10 were added to the coated plates and incubated for 2 hr at 37° C. Plates were washed and incubated with biotinylated rat anti-mouse IL-10 (R&D Systems; Minneapolis Minn.) for 1 hr at 37° C. Plates were washed and incubated with streptavidin-HRP 30 min at 37° C., and HRP activity was detected with hydrogen peroxide and TMB using standard immunoassay procedures.

The subject of another assay is TNF-α. Put plainly: Reduction of lipopolysaccharide-induced tumor necrosis factor levels in mice. It is filed as in vivo, BALB/c female mice. The following applies: IP, plasma 90 or 105 minutes after LPS, mean ± SEM. As to the method: BALB/c female mice weighing approximately 20 g were placed into a control group and a treated group. Five mg/kg of LPS in 0.9% saline was administered (100 μl to give 100 μg LPS per mouse) by intraperitoneal (IP) injection to all mice. Mice in the treatment group received either 30, 100, 300 or 600 μg of various isoquinoline compounds per mouse in a volume of 100 μl of PBS. Control mice received 100 μl of saline alone. One minute after initial injections all mice received the LPS injection. As a positive control, 100 μg of HP 228 was injected per mouse.
Blood samples were collected from the orbital sinus of treated and control mice 90 minutes or 105 minutes after LPS administration. The plasma was separated by centrifugation at 3000×g for 5 min and stored at −20° C. Samples were thawed and diluted, if TNF-α concentration was greater than 3200 pg/ml, with PBS containing 1% bovine serum albumin, 10% donor horse serum, 1% normal mouse serum, 0.05% TWEEN-20 and 0.05% thimerosal. A 100 μl sample of plasma was assayed by ELISA for TNF-α. Briefly, ELISA plates were coated with hamster anti-mouse TNF-α antibody (Genzyme; Cambridge Mass.). Samples or known concentrations of TNF-α were added to the coated plates and incubated for 2 hr at 37° C. Plates were washed and subsequently incubated with biotinylated rabbit anti-mouse TNG-α for 1 hr at 37° C. Plates were washed and incubated with streptavidin-HRP for 1 hr at 37° C., and HRP activity was detected with hydrogen peroxide and o-phenylenediamine (OPD) using standard immunoassay procedures.
The mean (±SEM) TNF-α level in five mice from each group was determined and the percent reduction in TNF-α levels was calculated.

Another assay addresses T1, MCR-1 (Homo sapiens, UniProt Q01726).
T1 construct: expressed in transfected cells; host or cells: HEK 293
As to the kind of experiment: Melanocortin receptor binding assay, competition with 125I-HP 467, HEK 293 cells expressing hMCR-1. The settings on record: for IC50: inhibition of binding of 125I-HP 467, HEK 293 cells expressing MCR-1, read-out: MC-1 IC50. In a few lines: (§1)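 Intact-cell competition binding, 2.5 hr at 37 °C, in PBS/10% calf serum/1 mM CaCl2; hMCR-4 cells at 4×10^3 per tube, hMCR-1 cells at 2×10^4 per tube. Filtration on BSA/CaCl2-soaked GF/B, cold 50 mM Tris pH 7.4 washes, scintillation count.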

The target in the next assay is T2, MCR-4 (Homo sapiens, UniProt P32245).
T2 construct: expressed in transfected cells; host or cells: HEK 293
T2 sequence (P32245 whole entry): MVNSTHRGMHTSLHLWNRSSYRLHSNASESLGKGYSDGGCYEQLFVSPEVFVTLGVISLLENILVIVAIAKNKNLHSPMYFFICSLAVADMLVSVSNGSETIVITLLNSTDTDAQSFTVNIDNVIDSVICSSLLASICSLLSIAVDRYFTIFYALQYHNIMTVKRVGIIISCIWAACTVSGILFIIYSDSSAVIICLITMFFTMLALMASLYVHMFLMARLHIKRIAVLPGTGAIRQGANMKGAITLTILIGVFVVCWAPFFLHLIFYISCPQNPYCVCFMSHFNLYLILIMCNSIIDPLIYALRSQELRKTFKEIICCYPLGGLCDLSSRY
Put plainly: Melanocortin receptor binding assay, competition with 125I-HP 467, HEK 293 cells expressing hMCR-4. The settings on record: inhibition of binding of 125I-HP 467, HEK 293 cells expressing MCR-4; read-out: MC-4 IC50. Summed up:
as §1

In assay [1] the test system is arachidonic acid induced dermal inflammation. Put plainly: Arachidonic acid induced dermal inflammation (ear thickness). In kind it is in vivo, Female BALB/c mice. The settings on record: administered orally; TRG 2405-241 600 μg/mouse, indomethacin 1 mg/mouse; FIG. 2. As to the method: Female BALB/c mice (17-22 g) were used and administered the test isoquinoline compounds or positive control compounds 30 to 60 min prior to topical application of arachidonic acid. Indomethacin and HP 228 were used as positive controls. Compounds were administered orally (p.o.) or intraperitoneally (i.p.). Initial ear thickness (left and right) was measured using spring loaded micro-calipers. Arachidonic acid was applied to mice anesthetized with a cocktail of ketamine/xylazine (7.0 mg/ml and 0.6 mg/ml, respectively) administered i.p. (300 μl/mouse). Utilizing a micro-pipette, 20 μl of arachidonic acid solution (100 mg/ml ethanol or acetone) was applied to the right ear (10 μl to inner and 10 μl to outer surfaces of […] for a total of 2 mg arachidonic acid per right ear), and 20 μl of vehicle (ethanol or acetone) was applied to the left ear. Mice were returned to their cages to recover. Mice were again anesthetized 50 min after arachidonic acid application and their ears measured.
Dermal inflammation was determined by subtracting the difference of the vehicle treated left ear (L60−L0) from the difference of the arachidonic acid treated right ear (R60−R0). Ear thickness measurements were averaged for each group, and the responses in the vehicle treated control group (Cr; saline or PBS) were subtracted from the response noted in the isoquinoline compound treated group (Tr) to give the relative inflammatory response for each treatment group compared to the control group. The percent inhibition is defined by the equation: % inhibition=(Cr−Tr)/(Cr)×100.

T1 sequence (Q01726 whole entry): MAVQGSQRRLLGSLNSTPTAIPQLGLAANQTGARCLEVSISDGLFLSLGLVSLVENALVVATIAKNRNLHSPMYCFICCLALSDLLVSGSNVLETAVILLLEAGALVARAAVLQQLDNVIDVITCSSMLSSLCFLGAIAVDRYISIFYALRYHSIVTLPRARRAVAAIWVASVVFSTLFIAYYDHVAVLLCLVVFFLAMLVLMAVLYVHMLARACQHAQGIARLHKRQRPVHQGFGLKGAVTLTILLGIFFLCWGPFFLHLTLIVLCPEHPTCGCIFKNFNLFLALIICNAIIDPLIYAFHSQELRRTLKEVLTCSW

As to `CNC(CN)CCCCN1Cc2ccccc2C(CNC2CCCCC2)C1c1ccc(OC)c(S(=O)(=O)O)c1` (stereo not shown) [TRG 2405-268], the “% IL-10 Induction, IP 30” value in the assay on IL-10 (30 μg per mouse) is reported as −3 ± 16%. The “% IL-10 Induction, IP 300” value with IL-10 (300 μg per mouse) was 6 ± 17%. In the assay on TNF-α (30 μg per mouse), the “% TNF-α Inhibtion, IP 30” value is −58 ± 18%. Also, in the assay with TNF-α (300 μg per mouse), the “% TNF-α Inhibtion, IP 300” value is 9 ± 23%. On MCR-1 (10 μM isoquinoline compound, HEK 293 cells expressing MCR-1, duplicate 1), the “% Disp. of 125I-HP 467 (first of duplicate)” value is 0%. For the same compound, the “% Disp. of 125I-HP 467 (second of duplicate)” value at MCR-1 (10 μM isoquinoline compound, HEK 293 cells expressing MCR-1, duplicate 2) stood at 3.6%.

Consider `CCOc1ccc(CCNCC2c3ccccc3CN(CCCCC(CN)NCc3ccc(C)cc3)C2c2cc(C(F)(F)F)cc(C(F)(F)F)c2)cc1` (stereo not shown) [TRG 2421-22], for which the concentration for half-maximal inhibition (IC50) turned out to be 8.22 µM at MCR-4 and 3.02 µM at MCR-1.

For `CCOc1ccc(CCNCC2c3ccccc3CN(CCCCC(CN)NCc3ccc(Br)cc3)C2c2cc(C(F)(F)F)cc(C(F)(F)F)c2)cc1` (stereo not shown) [TRG 2421-23], the figures for the IC50 on MCR-4 and at MCR-1 were 8.22 µM and 7.44 µM, respectively.

Consider `CCOc1ccc(CCNCC2c3ccccc3CN(CCCCC(CN)NCc3ccc(OC)cc3)C2c2cc(C(F)(F)F)cc(C(F)(F)F)c2)cc1` (stereo not shown) [TRG 2421-24], for which the IC50 at MCR-4 was determined as 2.26 µM; at MCR-1 it was 2.35 µM.

As for `CCOc1ccc(CCNCC2c3ccccc3CN(CCCCC(CN)NCc3ccc(-c4ccccc4)cc3)C2c2cc(C(F)(F)F)cc(C(F)(F)F)c2)cc1` (stereo not shown) [TRG 2421-25], the results for the concentration for half-maximal inhibition (IC50) at MCR-4 and at MCR-1 were 10.9 µM and 10 µM, respectively.

Regarding `NCC(CCCCN1Cc2ccccc2C(CNCCc2ccc(Oc3ccccc3)cc2)C1c1cc(C(F)(F)F)cc(C(F)(F)F)c1)NCc1ccccc1` (stereo not shown) [TRG 2421-26], the IC50 at MCR-4 amounted to 12.9 µM; on MCR-1 it was 11.4 µM.

With `Cc1ccc(CNC(CN)CCCCN2Cc3ccccc3C(CNCCc3ccc(Oc4ccccc4)cc3)C2c2cc(C(F)(F)F)cc(C(F)(F)F)c2)cc1` (stereo not shown) [TRG 2421-27], the IC50 on MCR-4 came out at 9.26 µM; on MCR-1, 7.26 µM.

Regarding `COc1ccc(CNC(CN)CCCCN2Cc3ccccc3C(CNCCc3ccc(Oc4ccccc4)cc3)C2c2cc(C(F)(F)F)cc(C(F)(F)F)c2)cc1` (stereo not shown) [TRG 2421-29], the IC50 was determined as 7.92 µM on MCR-4 and 5.1 µM at MCR-1.

With `NCC(CCCCN1Cc2ccccc2C(CNCCc2ccc(Cl)cc2)C1c1cc(C(F)(F)F)cc(C(F)(F)F)c1)NCc1ccccc1` (stereo not shown) [TRG 2421-31], the IC50 at MCR-4 turned out to be 2.77 µM; on MCR-1, 5.9 µM.

Regarding `Cc1ccc(CNC(CN)CCCCN2Cc3ccccc3C(CNCCc3ccc(Cl)cc3)C2c2cc(C(F)(F)F)cc(C(F)(F)F)c2)cc1` (stereo not shown) [TRG 2421-32], the figures for the IC50 on MCR-4 and on MCR-1 were 4.15 µM and 5.77 µM, respectively.

`NCC(CCCCN1Cc2ccccc2C(CNCCc2ccc(Cl)cc2)C1c1cc(C(F)(F)F)cc(C(F)(F)F)c1)NCc1ccc(Br)cc1` (stereo not shown) [TRG 2421-33]: the IC50 stood at 8.36 µM at MCR-4 and 6.93 µM at MCR-1.

In the case of `COc1ccc(CNC(CN)CCCCN2Cc3ccccc3C(CNCCc3ccc(Cl)cc3)C2c2cc(C(F)(F)F)cc(C(F)(F)F)c2)cc1` (stereo not shown) [TRG 2421-34], the IC50 was 2.64 µM on MCR-4 and 4.98 µM at MCR-1.

As for `COc1cccc(CCNCC2c3ccccc3CN(CCCCC(CN)NCc3ccccc3)C2c2cc(C(F)(F)F)cc(C(F)(F)F)c2)c1` (stereo not shown) [TRG 2421-36], the IC50 at MCR-4 came to 0.89 µM; at MCR-1, 3.99 µM.

Take `COc1cccc(CCNCC2c3ccccc3CN(CCCCC(CN)NCc3ccc(C)cc3)C2c2cc(C(F)(F)F)cc(C(F)(F)F)c2)c1` (stereo not shown) [TRG 2421-37]: the IC50 on MCR-4 came to 0.84 µM; on MCR-1, 3.08 µM.

For the compound `COc1cccc(CCNCC2c3ccccc3CN(CCCCC(CN)NCc3ccc(Br)cc3)C2c2cc(C(F)(F)F)cc(C(F)(F)F)c2)c1` (stereo not shown) [TRG 2421-38], the IC50 on MCR-4 stood at 1.34 µM; at MCR-1, 7.47 µM.

Regarding `COc1ccc(CNC(CN)CCCCN2Cc3ccccc3C(CNCCc3cccc(OC)c3)C2c2cc(C(F)(F)F)cc(C(F)(F)F)c2)cc1` (stereo not shown) [TRG 2421-39], the IC50 worked out at 1.04 µM at MCR-4 and 3.3 µM on MCR-1.

In the case of `COc1cccc(CCNCC2c3ccccc3CN(CCCCC(CN)NCc3ccc(-c4ccccc4)cc3)C2c2cc(C(F)(F)F)cc(C(F)(F)F)c2)c1` (stereo not shown) [TRG 2421-40], the IC50 at MCR-4 turned out to be 3.98 µM; on MCR-1, 12.1 µM.

As for `NCC(CCCCN1Cc2ccccc2C(CNCCc2ccccc2)C1c1cccc(C(F)(F)F)c1)NCc1ccccc1` (stereo not shown) [TRG 2421-41], the results for the IC50 on MCR-4 and on MCR-1 were 1.72 µM and 2.51 µM, respectively.

Take `COc1ccc(CNC(CN)CCCCN2Cc3ccccc3C(CNCCc3ccccc3)C2c2cccc(C(F)(F)F)c2)cc1` (stereo not shown) [TRG 2421-42]: the 50% inhibitory concentration (IC50) was 1.72 µM on MCR-4 and 2.15 µM at MCR-1.

As to `COc1ccc(CCNCC2c3ccccc3CN(CCCCC(CN)NCc3ccccc3)C2c2cccc(C(F)(F)F)c2)cc1` (stereo not shown) [TRG 2421-43], the IC50 at MCR-4 was determined as 1.76 µM; on MCR-1, 2.15 µM.

In the case of `COc1ccc(CCNCC2c3ccccc3CN(CCCCC(CN)NCc3ccc(OC)cc3)C2c2cccc(C(F)(F)F)c2)cc1` (stereo not shown) [TRG 2421-44], the IC50 at MCR-4 came to 1.42 µM; on MCR-1 it was 1.54 µM.

For `CCOc1ccc(CCNCC2c3ccccc3CN(CCCCC(CN)NCc3ccccc3)C2c2cccc(C(F)(F)F)c2)cc1` (stereo not shown) [TRG 2421-45], the results for the IC50 on MCR-4 and on MCR-1 were 2.73 µM and 0.98 µM, respectively.

Consider `CCOc1ccc(CCNCC2c3ccccc3CN(CCCCC(CN)NCc3ccc(OC)cc3)C2c2cccc(C(F)(F)F)c2)cc1` (stereo not shown) [TRG 2421-46], for which the results for the half-inhibitory concentration (IC50) at MCR-4 and at MCR-1 were 3.61 µM and 1.58 µM, respectively.

For `COc1cccc(CCNCC2c3ccccc3CN(CCCCC(CN)NCc3ccccc3)C2c2cccc(C(F)(F)F)c2)c1` (stereo not shown) [TRG 2421-47], the IC50 at MCR-4 was found to be 1.37 µM; on MCR-1, 2.71 µM.

For `COc1ccc(CNC(CN)CCCCN2Cc3ccccc3C(CNCCc3cccc(OC)c3)C2c2cccc(C(F)(F)F)c2)cc1` (stereo not shown) [TRG 2421-48], the IC50 was determined as 0.95 µM on MCR-4 and 1.74 µM at MCR-1.

Turning to `COc1ccc2c(c1)c(CC(=O)O)c(C)n2C(=O)c1ccc(Cl)cc1` [indomethacin, reference compound], the “inhibition of arachidonic acid induced dermal inflammation” value in assay [1] is recorded as “inhibition of arachidonic acid induced dermal inflammation”.
